pIC50: −log10 of the molar value.

Sequence of Phosphatidylinositol 4,5-bisphosphate 3-kinase catalytic subunit alpha isoform (P42336 whole entry, canonical isoform): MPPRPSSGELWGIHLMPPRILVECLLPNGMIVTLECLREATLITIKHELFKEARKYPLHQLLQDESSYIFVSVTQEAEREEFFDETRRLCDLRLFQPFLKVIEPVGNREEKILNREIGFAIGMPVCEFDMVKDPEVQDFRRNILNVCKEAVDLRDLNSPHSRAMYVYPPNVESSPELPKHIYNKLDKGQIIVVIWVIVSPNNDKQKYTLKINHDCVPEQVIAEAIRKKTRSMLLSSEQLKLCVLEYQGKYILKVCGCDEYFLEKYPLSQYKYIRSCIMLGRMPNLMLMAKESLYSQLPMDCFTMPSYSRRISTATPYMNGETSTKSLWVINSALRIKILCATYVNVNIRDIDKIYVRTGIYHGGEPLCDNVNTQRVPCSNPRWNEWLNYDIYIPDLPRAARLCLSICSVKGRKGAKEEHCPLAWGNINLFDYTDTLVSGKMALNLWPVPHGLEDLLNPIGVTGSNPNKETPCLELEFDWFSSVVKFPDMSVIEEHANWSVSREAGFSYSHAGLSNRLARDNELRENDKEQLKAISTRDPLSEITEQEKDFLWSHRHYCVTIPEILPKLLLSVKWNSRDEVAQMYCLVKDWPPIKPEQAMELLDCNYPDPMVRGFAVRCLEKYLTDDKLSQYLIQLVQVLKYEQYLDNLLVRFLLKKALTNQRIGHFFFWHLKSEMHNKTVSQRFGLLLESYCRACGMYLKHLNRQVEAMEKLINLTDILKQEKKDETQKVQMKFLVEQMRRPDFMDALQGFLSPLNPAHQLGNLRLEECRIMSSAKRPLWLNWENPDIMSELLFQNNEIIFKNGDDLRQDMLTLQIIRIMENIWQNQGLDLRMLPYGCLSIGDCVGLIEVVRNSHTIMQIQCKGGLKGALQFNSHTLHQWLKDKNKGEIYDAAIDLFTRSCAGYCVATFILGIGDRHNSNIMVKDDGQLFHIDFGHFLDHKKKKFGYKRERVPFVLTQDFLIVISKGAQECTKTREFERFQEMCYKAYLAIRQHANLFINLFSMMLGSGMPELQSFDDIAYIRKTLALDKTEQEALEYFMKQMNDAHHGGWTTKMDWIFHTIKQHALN

One data set is filed under the species Homo sapiens. Put plainly: Selectivity ratio of IC50 for inhibition of PI3Kalpha (unknown origin) to IC50 for inhibition of PI3Kgamma (unknown origin).
Conditions: not given
Regarding `Cc1cc(-c2ccn3nc(N)c(C(=O)N[C@H]4CC[C@](C)(O)CC4)c3n2)cc2c1C(=O)N([C@@H](C)C1CC1)C2`, the Ratio IC50 was determined as 82.

For `Cc1cc(-c2ccn3nc(N)c(C(=O)N[C@H]4CCOC4)c3n2)cc2c1C(=O)N([C@@H](C)C1CC1)C2`, the Ratio IC50 came out at 580.

On to `Cc1cc(-c2ccn3nc(N)c(C(=O)N[C@H]4CNC(=O)C4)c3n2)cc2c1C(=O)N([C@@H](C)C1CC1)C2`, for which the Ratio IC50 turned out to be 568.

As to `Cc1cc(-c2ccn3nc(N)c(C(=O)N[C@H]4CC[C@@](C)(O)CC4)c3n2)cc2c1C(=O)N([C@@H](C)C1CC1)C2`, the Ratio IC50 was over 2090.

In the next data set the target is T1, Phosphatidylinositol 4,5-bisphosphate 3-kinase catalytic subunit delta isoform (Homo sapiens, UniProt O00329).
T1 sequence (O00329 whole entry): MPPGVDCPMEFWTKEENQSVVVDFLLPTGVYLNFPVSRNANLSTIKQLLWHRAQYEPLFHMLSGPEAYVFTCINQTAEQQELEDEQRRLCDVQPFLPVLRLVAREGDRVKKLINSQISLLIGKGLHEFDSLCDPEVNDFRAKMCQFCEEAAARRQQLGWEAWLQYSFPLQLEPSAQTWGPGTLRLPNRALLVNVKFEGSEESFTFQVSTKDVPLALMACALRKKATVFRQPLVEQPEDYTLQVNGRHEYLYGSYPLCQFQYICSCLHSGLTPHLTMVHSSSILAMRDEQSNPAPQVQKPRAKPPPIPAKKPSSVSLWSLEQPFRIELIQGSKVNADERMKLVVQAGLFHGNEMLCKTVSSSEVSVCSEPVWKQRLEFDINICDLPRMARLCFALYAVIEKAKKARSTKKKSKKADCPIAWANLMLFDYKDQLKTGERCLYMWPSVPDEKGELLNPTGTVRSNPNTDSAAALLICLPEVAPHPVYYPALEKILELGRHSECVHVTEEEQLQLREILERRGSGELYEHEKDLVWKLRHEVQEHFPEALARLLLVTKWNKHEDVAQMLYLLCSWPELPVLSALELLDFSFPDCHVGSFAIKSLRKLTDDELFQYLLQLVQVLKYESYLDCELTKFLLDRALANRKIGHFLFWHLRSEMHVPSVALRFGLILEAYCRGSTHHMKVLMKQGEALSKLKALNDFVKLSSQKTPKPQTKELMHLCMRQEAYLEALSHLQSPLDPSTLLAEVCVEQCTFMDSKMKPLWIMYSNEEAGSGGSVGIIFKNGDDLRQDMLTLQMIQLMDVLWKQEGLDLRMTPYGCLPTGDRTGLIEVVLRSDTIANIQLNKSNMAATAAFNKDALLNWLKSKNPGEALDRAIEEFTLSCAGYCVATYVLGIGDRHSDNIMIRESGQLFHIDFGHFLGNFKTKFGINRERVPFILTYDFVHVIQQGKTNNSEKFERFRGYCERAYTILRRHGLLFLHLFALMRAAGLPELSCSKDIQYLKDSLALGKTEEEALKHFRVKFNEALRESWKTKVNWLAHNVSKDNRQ
Put plainly: Inhibition of PI3Kdelta (unknown origin) using PIP2 as substrate preincubated for 1 hr followed by substrate addition and measured after 60 mins in presence of ATP by ADP-glo assay.
Conditions: not given
In general terms: ADP-Glo turns the ADP formed in a reaction into a luminescent signal.
As usually defined, the pIC50 is the IC50 on a negative log10 scale, so that one unit is a factor of ten. For the compound `Cc1cc(-c2ccn3nc(N)c(C(=O)N[C@H]4CC[C@](C)(O)CC4)c3n2)cc2c1C(=O)N([C@@H](C)C1CC1)C2`, the pIC50 is 6.81.

Take `Cc1cc(-c2ccn3nc(N)c(C(=O)N[C@H]4CCOC4)c3n2)cc2c1C(=O)N([C@@H](C)C1CC1)C2`: the pIC50 was 6.22.

For `Cc1cc(-c2ccn3nc(N)c(C(=O)N[C@H]4CNC(=O)C4)c3n2)cc2c1C(=O)N([C@@H](C)C1CC1)C2`, the pIC50 is 6.11.

For `Cc1cc(-c2ccn3nc(N)c(C(=O)N[C@H]4CC[C@@](C)(O)CC4)c3n2)cc2c1C(=O)N([C@@H](C)C1CC1)C2`, the pIC50 was under 5.00.

A further data set concerns the target Phosphatidylinositol 4,5-bisphosphate 3-kinase catalytic subunit alpha isoform (Homo sapiens, UniProt P42336). Put plainly: Inhibition of PI3Kalpha (unknown origin) using PIP2 as substrate preincubated for 1 hr followed by substrate addition and measured after 60 mins in presence of ATP by ADP-glo assay.
Conditions: not given
On to `Cc1cc(-c2ccn3nc(N)c(C(=O)N[C@H]4CC[C@](C)(O)CC4)c3n2)cc2c1C(=O)N([C@@H](C)C1CC1)C2`, for which the pIC50 was 6.62.

Consider `Cc1cc(-c2ccn3nc(N)c(C(=O)N[C@H]4CCOC4)c3n2)cc2c1C(=O)N([C@@H](C)C1CC1)C2`, for which the pIC50 was 6.01.

For the compound `Cc1cc(-c2ccn3nc(N)c(C(=O)N[C@H]4CNC(=O)C4)c3n2)cc2c1C(=O)N([C@@H](C)C1CC1)C2`, the pIC50 is 6.00.

As to `Cc1cc(-c2ccn3nc(N)c(C(=O)N[C@H]4CC[C@@](C)(O)CC4)c3n2)cc2c1C(=O)N([C@@H](C)C1CC1)C2`, the pIC50 was under 5.00.

System in another data set: not listed separately
Briefly: Hepatic clearance in Sprague-Dawley rat by LC-MS/MS analysis. Conditions: in vivo. The data set is classed as ADME.
`Cc1cc(-c2ccn3nc(N)c(C(=O)N[C@H]4CC[C@](C)(O)CC4)c3n2)cc2c1C(=O)N([C@@H](C)C1CC1)C2`: the CLH turned out to be 71.7 mL/min/kg.

In the case of `Cc1cc(-c2ccn3nc(N)c(C(=O)N[C@H]4CCOC4)c3n2)cc2c1C(=O)N([C@@H](C)C1CC1)C2`, the CLH was determined as 130 mL/min/kg.

As for `Cc1cc(-c2ccn3nc(N)c(C(=O)N[C@H]4CNC(=O)C4)c3n2)cc2c1C(=O)N([C@@H](C)C1CC1)C2`, the CLH turned out to be 73.3 mL/min/kg.

For the compound `Cc1cc(-c2ccn3nc(N)c(C(=O)N[C@H]4CC[C@@](C)(O)CC4)c3n2)cc2c1C(=O)N([C@@H](C)C1CC1)C2`, the CLH was 33 mL/min/kg.

System in a further data set: not listed separately
Briefly: Metabolic stability in human hepatocytes assessed as intrinsic clearance per 10^6 cells at 0.5 uM by LC-MS/MS analysis. The data set is classed as ADME, cell-based, Hepatocyte. The following applies: read-out: CLH.
As to `Cc1cc(-c2ccn3nc(N)c(C(=O)N[C@H]4CC[C@](C)(O)CC4)c3n2)cc2c1C(=O)N([C@@H](C)C1CC1)C2`, the hepatocyte CLint at 0.5 µM was 8.7 µL/min/1e6 cells.

As to `Cc1cc(-c2ccn3nc(N)c(C(=O)N[C@H]4CCOC4)c3n2)cc2c1C(=O)N([C@@H](C)C1CC1)C2`, the hepatocyte CLint at 0.5 µM came to 9.35 µL/min/1e6 cells.

Turning to `Cc1cc(-c2ccn3nc(N)c(C(=O)N[C@H]4CNC(=O)C4)c3n2)cc2c1C(=O)N([C@@H](C)C1CC1)C2`, the hepatocyte CLint at 0.5 µM is under 1.2 µL/min/1e6 cells.

For `Cc1cc(-c2ccn3nc(N)c(C(=O)N[C@H]4CC[C@@](C)(O)CC4)c3n2)cc2c1C(=O)N([C@@H](C)C1CC1)C2`, the hepatocyte CLint at 0.5 µM is under 1.2 µL/min/1e6 cells.

The species entered for another data set is Homo sapiens. Briefly: Selectivity ratio of IC50 for inhibition of PI3Kdelta (unknown origin) to IC50 for inhibition of PI3Kgamma (unknown origin).
Conditions: not given
Regarding `Cc1cc(-c2ccn3nc(N)c(C(=O)N[C@H]4CC[C@](C)(O)CC4)c3n2)cc2c1C(=O)N([C@@H](C)C1CC1)C2`, the Ratio IC50 amounted to 53.

In the case of `Cc1cc(-c2ccn3nc(N)c(C(=O)N[C@H]4CCOC4)c3n2)cc2c1C(=O)N([C@@H](C)C1CC1)C2`, the Ratio IC50 amounted to 352.

Take `Cc1cc(-c2ccn3nc(N)c(C(=O)N[C@H]4CNC(=O)C4)c3n2)cc2c1C(=O)N([C@@H](C)C1CC1)C2`: the Ratio IC50 came out at 439.

For the compound `Cc1cc(-c2ccn3nc(N)c(C(=O)N[C@H]4CC[C@@](C)(O)CC4)c3n2)cc2c1C(=O)N([C@@H](C)C1CC1)C2`, the Ratio IC50 is over 2090.

For another data set, the target named is T2, Phosphatidylinositol 4,5-bisphosphate 3-kinase catalytic subunit gamma isoform (Homo sapiens, UniProt P48736). Put plainly: Inhibition of PI3Kgamma (unknown origin) using PIP2 as substrate preincubated for 1 hr followed by substrate addition and measured after 60 mins in presence of ATP by ADP-glo assay.
T2 sequence (P48736 whole entry, canonical isoform): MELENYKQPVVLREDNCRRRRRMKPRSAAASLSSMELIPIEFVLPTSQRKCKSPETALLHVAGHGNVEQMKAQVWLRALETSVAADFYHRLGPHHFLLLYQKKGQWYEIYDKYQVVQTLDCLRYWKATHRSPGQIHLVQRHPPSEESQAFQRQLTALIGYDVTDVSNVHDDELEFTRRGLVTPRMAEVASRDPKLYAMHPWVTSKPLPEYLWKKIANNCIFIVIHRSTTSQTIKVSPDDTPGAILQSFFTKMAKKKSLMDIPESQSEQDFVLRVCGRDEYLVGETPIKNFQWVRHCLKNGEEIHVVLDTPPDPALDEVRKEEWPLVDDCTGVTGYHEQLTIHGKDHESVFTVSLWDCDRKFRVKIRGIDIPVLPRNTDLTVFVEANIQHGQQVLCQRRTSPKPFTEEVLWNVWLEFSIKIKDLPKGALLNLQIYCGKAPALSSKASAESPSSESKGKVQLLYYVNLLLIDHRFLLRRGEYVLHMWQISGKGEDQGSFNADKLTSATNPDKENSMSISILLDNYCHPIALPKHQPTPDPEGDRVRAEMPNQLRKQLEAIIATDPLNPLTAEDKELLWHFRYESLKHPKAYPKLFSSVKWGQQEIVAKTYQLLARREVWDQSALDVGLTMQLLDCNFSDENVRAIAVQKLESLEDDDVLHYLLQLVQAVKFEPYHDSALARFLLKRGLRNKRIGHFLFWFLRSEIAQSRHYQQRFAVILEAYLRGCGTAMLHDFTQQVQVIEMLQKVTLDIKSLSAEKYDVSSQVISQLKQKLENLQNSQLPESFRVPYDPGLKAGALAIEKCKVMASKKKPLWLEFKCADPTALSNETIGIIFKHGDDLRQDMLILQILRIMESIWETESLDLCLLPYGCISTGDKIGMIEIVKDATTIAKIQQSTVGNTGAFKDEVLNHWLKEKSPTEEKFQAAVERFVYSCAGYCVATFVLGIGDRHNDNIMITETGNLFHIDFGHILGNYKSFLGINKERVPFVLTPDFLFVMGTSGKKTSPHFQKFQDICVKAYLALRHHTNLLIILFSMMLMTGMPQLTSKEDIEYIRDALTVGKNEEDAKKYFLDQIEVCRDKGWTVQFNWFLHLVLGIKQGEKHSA
Conditions: not given
With `Cc1cc(-c2ccn3nc(N)c(C(=O)N[C@H]4CC[C@](C)(O)CC4)c3n2)cc2c1C(=O)N([C@@H](C)C1CC1)C2`, the pIC50 was 8.52.

With `Cc1cc(-c2ccn3nc(N)c(C(=O)N[C@H]4CCOC4)c3n2)cc2c1C(=O)N([C@@H](C)C1CC1)C2`, the pIC50 is 8.74.

Regarding `Cc1cc(-c2ccn3nc(N)c(C(=O)N[C@H]4CNC(=O)C4)c3n2)cc2c1C(=O)N([C@@H](C)C1CC1)C2`, the negative-log IC50 (pIC50) was 8.74.

For `Cc1cc(-c2ccn3nc(N)c(C(=O)N[C@H]4CC[C@@](C)(O)CC4)c3n2)cc2c1C(=O)N([C@@H](C)C1CC1)C2`, the pIC50 is 8.32.

System in another data set: not listed separately
Briefly: Metabolic stability in rat hepatocyte assessed as intrinsic clearance per 10^8 cells at 0.5 uM by LC-MS/MS analysis. The class given is ADME, cell-based. Conditions: hepatocytes.
As to `Cc1cc(-c2ccn3nc(N)c(C(=O)N[C@H]4CC[C@](C)(O)CC4)c3n2)cc2c1C(=O)N([C@@H](C)C1CC1)C2`, the hepatocyte intrinsic clearance came out at 22.1 µL/min.

Take `Cc1cc(-c2ccn3nc(N)c(C(=O)N[C@H]4CCOC4)c3n2)cc2c1C(=O)N([C@@H](C)C1CC1)C2`: the hepatocyte intrinsic clearance came out at 13 µL/min.

As to `Cc1cc(-c2ccn3nc(N)c(C(=O)N[C@H]4CNC(=O)C4)c3n2)cc2c1C(=O)N([C@@H](C)C1CC1)C2`, the hepatocyte intrinsic clearance amounted to 2.73 µL/min.

For the compound `Cc1cc(-c2ccn3nc(N)c(C(=O)N[C@H]4CC[C@@](C)(O)CC4)c3n2)cc2c1C(=O)N([C@@H](C)C1CC1)C2`, the hepatocyte intrinsic clearance was 11.6 µL/min.

Another data set has as its target T2, Phosphatidylinositol 4,5-bisphosphate 3-kinase catalytic subunit gamma isoform. Briefly: Inhibition of PI3Kgamma (unknown origin) in […] stimulated human THP-1 cells assessed as reduction in Akt phosphorylation level at Ser473 residue preincubated for 60 mins followed by rhMCP-1 stimulation and measured after 2 mins by AlphaLisa assay. The data set is classed as cell-based.
Conditions: not given
A general note: Bead proximity is the source of the signal in Alpha formats.
For `Cc1cc(-c2ccn3nc(N)c(C(=O)N[C@H]4CC[C@](C)(O)CC4)c3n2)cc2c1C(=O)N([C@@H](C)C1CC1)C2`, the pIC50 was 7.12.

Turning to `Cc1cc(-c2ccn3nc(N)c(C(=O)N[C@H]4CCOC4)c3n2)cc2c1C(=O)N([C@@H](C)C1CC1)C2`, the pIC50 was 6.83.

For the compound `Cc1cc(-c2ccn3nc(N)c(C(=O)N[C@H]4CNC(=O)C4)c3n2)cc2c1C(=O)N([C@@H](C)C1CC1)C2`, the pIC50 was 6.96.

For the compound `Cc1cc(-c2ccn3nc(N)c(C(=O)N[C@H]4CC[C@@](C)(O)CC4)c3n2)cc2c1C(=O)N([C@@H](C)C1CC1)C2`, the pIC50 is 6.99.

The target in the next data set is CYP3A4 (Homo sapiens, UniProt P08684). Briefly: in vitro. The following applies: human liver microsomes, probe midazolam. On the technique in general: Microsomes from liver hold many membrane-bound enzymes, among them those of drug oxidation.
Sequence of CYP3A4 (P08684 whole entry): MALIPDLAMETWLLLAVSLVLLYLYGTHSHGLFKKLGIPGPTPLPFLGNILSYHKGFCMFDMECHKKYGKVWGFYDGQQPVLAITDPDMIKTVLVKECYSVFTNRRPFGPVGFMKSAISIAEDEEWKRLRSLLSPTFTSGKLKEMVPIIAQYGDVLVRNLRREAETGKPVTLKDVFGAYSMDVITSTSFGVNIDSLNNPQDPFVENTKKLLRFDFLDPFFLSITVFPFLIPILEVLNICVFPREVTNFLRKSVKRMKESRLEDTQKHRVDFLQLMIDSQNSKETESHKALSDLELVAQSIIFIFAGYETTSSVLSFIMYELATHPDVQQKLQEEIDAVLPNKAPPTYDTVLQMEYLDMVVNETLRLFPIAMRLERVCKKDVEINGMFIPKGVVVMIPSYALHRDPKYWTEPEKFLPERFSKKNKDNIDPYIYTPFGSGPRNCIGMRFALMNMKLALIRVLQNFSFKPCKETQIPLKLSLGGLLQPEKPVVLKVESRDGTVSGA
Description: Time dependent inhibition of CYP3A4 in human liver microsomes at 10 uM using midazolam as substrate preincubated for 30 mins in presence of NADPH by LC/MS/MS analysis relative to control
What is called inhibition is the share of the control response that was lost under treatment. A low value points to a response near the control. The compound `Cc1cc(-c2ccn3nc(N)c(C(=O)N[C@H]4CNC(=O)C4)c3n2)cc2c1C(=O)N([C@@H](C)C1CC1)C2` had an inhibition at 30 min, 10 µM of 4%.
